# Experimental data published in patent US9179678B2, “Substituted [1,2,4]triazoles and substituted tetrazoles as herbicides” (SYNGENTA LIMITED, priority 2012, dated 2015).
# Tests used:
# Type in all cases: in vivo
# Setaria faberi (SETFA) [1] = assay: Post-emergence glasshouse herbicide test; settings: POST Application, 1000 g/h, after 13 days
# Method in brief: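 Setaria faberi seeds were sown in standard soil in pots and grown for 8 days in a glasshouse at 24/16° C. day/night, 14 hours light and 65% humidity. Plants were then sprayed post-emergence with the active ingredient in acetone/water (50:50) containing 0.5% Tween 20, regrown under the same conditions with twice-daily watering, and scored for percentage damage after 13 days.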
# [2] = system: Alopecurus myosuroides (ALOMY); assay: Post-emergence glasshouse herbicide test; settings: POST Application, 1000 g/h, after 13 days
# Method in brief: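 Alopecurus myosuroides seeds were sown in pots of standard soil and grown for 8 days in a glasshouse at 24/16° C. day/night, 14 hours light and 65% humidity. The plants were then sprayed post-emergence with an aqueous solution made from the active ingredient in acetone/water (50:50) containing 0.5% Tween 20. Percentage plant damage was scored 13 days later.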
# Solanum nigrum (SOLNI) [3] = assay: Post-emergence glasshouse herbicide test; settings: POST Application, 1000 g/h, after 13 days
# Method in brief: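 Solanum nigrum seeds were sown in pots of standard soil and grown for 8 days in a glasshouse at 24/16° C. day/night, 14 hours light and 65% humidity. Plants were then sprayed post-emergence with the active ingredient formulated in acetone/water (50:50) containing 0.5% Tween 20. They were grown on under the same conditions with twice-daily watering, and percentage plant damage was scored after 13 days.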
# [4] = system: Amaranthus retoflexus (AMARE); assay: Post-emergence glasshouse herbicide test; settings: POST Application, 1000 g/h, after 13 days
# [5] = system: Ipomoea hederacea (IPOHE); assay: Post-emergence glasshouse herbicide test; settings: POST Application, 1000 g/h, after 13 days
# [6] = system: Echinochloa crus-galli (ECHCG); assay: Post-emergence glasshouse herbicide test; settings: POST Application, 1000 g/h, after 13 days
# [7] = system: Alopecurus myosuroides (ALOMY); assay: Pre-emergence glasshouse herbicide test; settings: PRE Application, 1000 g/h, after 13 days
# Method in brief: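 Alopecurus myosuroides seeds were sown in standard soil in pots and kept one day in a glasshouse at 24/16° C. day/night, 14 hours light and 65% humidity. The soil was then sprayed pre-emergence with the active ingredient in acetone/water (50:50) containing 0.5% Tween 20. Plants grew on, watered twice daily, and percentage damage was scored 13 days later.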
# Solanum nigrum (SOLNI) [8] = assay: Pre-emergence glasshouse herbicide test; settings: PRE Application, 1000 g/h, after 13 days
# Setaria faberi (SETFA) [9] = assay: Pre-emergence glasshouse herbicide test; settings: PRE Application, 1000 g/h, after 13 days
# [10] = system: Amaranthus retoflexus (AMARE); assay: Pre-emergence glasshouse herbicide test; settings: PRE Application, 1000 g/h, after 13 days
# [11] = system: Ipomoea hederacea (IPOHE); assay: Pre-emergence glasshouse herbicide test; settings: PRE Application, 1000 g/h, after 13 days
# [12] = system: Echinochloa crus-galli (ECHCG); assay: Pre-emergence glasshouse herbicide test; settings: PRE Application, 1000 g/h, after 13 days
Structure (SMILES),"percentage damage caused to the plant, SETFA (Setaria faberi (SETFA) [1])","percentage damage caused to the plant, ALOMY [2]","percentage damage caused to the plant, SOLNI (Solanum nigrum (SOLNI) [3])","percentage damage caused to the plant, AMARE [4]","percentage damage caused to the plant, IPOHE [5]","percentage damage caused to the plant, ECHCG [6]","percentage damage caused to the plant, ALOMY [7]","percentage damage caused to the plant, SOLNI (Solanum nigrum (SOLNI) [8])","percentage damage caused to the plant, SETFA (Setaria faberi (SETFA) [9])","percentage damage caused to the plant, AMARE [10]","percentage damage caused to the plant, IPOHE [11]","percentage damage caused to the plant, ECHCG [12]"
Cn1nnnc1NC(=O)c1nc2ccccc2n(-c2cccc([N+](=O)[O-])c2)c1=O [Compound 5.025],5 (5=80-100%),5 (5=80-100%),5 (5=80-100%),5 (5=80-100%),4 (4=60-79%),5 (5=80-100%),2 (2=20-39%),5 (5=80-100%),2 (2=20-39%),5 (5=80-100%),4 (4=60-79%),3 (3=40-59%)
Cn1nnnc1NC(=O)c1nc2ccccc2n(-c2cccc(C(F)(F)F)c2)c1=O [Compound 5.026],5 (5=80-100%),5 (5=80-100%),5 (5=80-100%),5 (5=80-100%),5 (5=80-100%),5 (5=80-100%),5 (5=80-100%),5 (5=80-100%),5 (5=80-100%),5 (5=80-100%),5 (5=80-100%),5 (5=80-100%)
C=Cc1cccc(-n2c(=O)c(C(=O)Nc3nnnn3C)nc3ccccc32)c1 [Compound 5.027],5 (5=80-100%),5 (5=80-100%),5 (5=80-100%),5 (5=80-100%),5 (5=80-100%),5 (5=80-100%),5 (5=80-100%),5 (5=80-100%),5 (5=80-100%),5 (5=80-100%),5 (5=80-100%),5 (5=80-100%)
Cn1nnnc1NC(=O)c1nc2ccccc2n(-c2ccc(F)cc2)c1=O [Compound 5.029],5 (5=80-100%),4 (4=60-79%),5 (5=80-100%),5 (5=80-100%),5 (5=80-100%),5 (5=80-100%),5 (5=80-100%),5 (5=80-100%),5 (5=80-100%),5 (5=80-100%),5 (5=80-100%),5 (5=80-100%)
Cn1nnnc1NC(=O)c1nc2ccccc2n(-c2ccc(OC(F)(F)F)cc2)c1=O [Compound 5.030],5 (5=80-100%),5 (5=80-100%),5 (5=80-100%),5 (5=80-100%),5 (5=80-100%),5 (5=80-100%),5 (5=80-100%),5 (5=80-100%),5 (5=80-100%),5 (5=80-100%),5 (5=80-100%),5 (5=80-100%)
Cn1nnnc1NC(=O)c1nc2ccccc2n(-c2ccc3ccccc3c2)c1=O [Compound 5.031],1 (1=0-19%),1 (1=0-19%),5 (5=80-100%),5 (5=80-100%),3 (3=40-59%),1 (1=0-19%),1 (1=0-19%),5 (5=80-100%),1 (1=0-19%),5 (5=80-100%),1 (1=0-19%),1 (1=0-19%)
Cn1nnnc1NC(=O)c1nc2ccccc2n(-c2ccc(Br)cc2)c1=O [Compound 5.032],5 (5=80-100%),2 (2=20-39%),5 (5=80-100%),5 (5=80-100%),5 (5=80-100%),3 (3=40-59%),4 (4=60-79%),5 (5=80-100%),5 (5=80-100%),5 (5=80-100%),5 (5=80-100%),4 (4=60-79%)
COc1ccc(-n2c(=O)c(C(=O)Nc3nnnn3C)nc3ccccc32)cc1F [Compound 5.033],4 (4=60-79%),1 (1=0-19%),5 (5=80-100%),5 (5=80-100%),5 (5=80-100%),5 (5=80-100%),2 (2=20-39%),5 (5=80-100%),1 (1=0-19%),5 (5=80-100%),5 (5=80-100%),5 (5=80-100%)
Cc1ccccc1-n1c(=O)c(C(=O)Nc2nnnn2C)nc2ccccc21 [Compound 5.034],5 (5=80-100%),4 (4=60-79%),5 (5=80-100%),5 (5=80-100%),5 (5=80-100%),5 (5=80-100%),5 (5=80-100%),5 (5=80-100%),5 (5=80-100%),5 (5=80-100%),5 (5=80-100%),5 (5=80-100%)
Cn1nnnc1NC(=O)c1nc2ccccc2n(-c2ccc(Cl)c(Cl)c2)c1=O [Compound 5.035],4 (4=60-79%),2 (2=20-39%),5 (5=80-100%),5 (5=80-100%),5 (5=80-100%),2 (2=20-39%),3 (3=40-59%),5 (5=80-100%),5 (5=80-100%),5 (5=80-100%),5 (5=80-100%),2 (2=20-39%)
Cc1cc(-n2c(=O)c(C(=O)Nc3nnnn3C)nc3ccccc32)ccc1Cl [Compound 5.036],4 (4=60-79%),2 (2=20-39%),5 (5=80-100%),5 (5=80-100%),5 (5=80-100%),5 (5=80-100%),3 (3=40-59%),5 (5=80-100%),4 (4=60-79%),5 (5=80-100%),5 (5=80-100%),3 (3=40-59%)
